As a reminder, the solubility is the concentration that dissolves in the medium under given conditions. Low readings indicate a poorly soluble substance, high ones a readily soluble substance. A word on the logD: it is lipophilicity at a set pH, counting ionised and neutral species. Low values mean a more hydrophilic compound, high ones a more lipophilic compound.

Data set [1] in a line: Octanol/saline distribution (partition coefficient Pc), shake-flask technique. Particulars: for log Pc (octanol/saline distribution coefficient): 22° C., shake-flask.
Description: In addition, the partition coefficient (Pc) values for these compounds, i.e their distribution ratios between the organic and the aqueous phases (octanol/saline), were calculated.
The distribution of the compounds between the organic and the aqueous phases was measured by the shake-flask technique. Five milliliters of octanol containing about 3 mg of the studied compound were mixed with 5 ml saline. The mixture was shaken overnight at 22° C. before the octanol and saline phases were separated. One ml from each phase was dissolved into an appropriate volume of ethanol so that the optical absorption of the obtained solution is in range of 0.1 to 1.0.
The coefficient Pc is calculated by the following ratio:
[formula] where Aoct is the optical absorption, at λmax, of the ethanol solution in which one ml of octanol phase is dissolved, V1 is the volume of this ethanol solution and l1 is the width (cm) of the cuvette used for measurement of the optical absorption.
Asal is the optical absorption, at λmax, of the ethanol solution in which the one ml of saline phase is dissolved, V2 is the volume of this ethanol solution and l2 is the width (cm) of the cuvette used for measurement of the optical absorption.
Data set [2] in a line: Solubility measurements of lipid derivatives in water, saline, ethanol and octanol. As to conditions: for solubility: 22 °C; for Solubility (mg/ml) Saline / Solubility (mg/ml) Water: 22° C.; a) gel, b) suspension obtained after filtration through 0.45 μm filter.
Description: The solubility of several lipid derivatives of diclofenac, indomethacin, ibuprofen, naproxen and 6-methoxy-2-naphthylacetic acid was determined at room temperature (22° C.) in aqueous solutions (water and saline) and in organic solutions (ethanol and octanol). In addition, the partition coefficient (Pc) values for these compounds, i.e their distribution ratios between the organic and the aqueous phases (octanol/saline), were calculated.

In brackets after ≈: the same amount, converted by molar mass.

For the compound `CCCCCCCCCCCCCCCCCC(=O)OC[C@H](COP(=O)([O-])OCC[N+](C)(C)C)OC(=O)CCCCNC(=O)Cc1ccccc1Nc1c(Cl)cccc1Cl` [DCF n=4, 1-Stearoyl-2-{5-[2-(2,6-dichloroanilino)phenylacetamido]valeroyl}-sn-glycero-3-phosphocholine], in data set [1], the “log Pc (octanol/saline distribution coefficient)” value was “≧3”. For the same compound, the solubility in data set [2] (saline, saline or isotonic) amounted to 2 µg/mL (≈ 2.22 µM); in data set [2] (water), 2 µg/mL (≈ 2.22 µM).

Consider `CCCCCCCCCCCCCCCCCC(=O)OC[C@H](COP(=O)([O-])OCC[N+](C)(C)C)OC(=O)CCCCCCCNC(=O)Cc1ccccc1Nc1c(Cl)cccc1Cl` [DCF n=7, 1-Stearoyl-2-{8-[2-(2,6-dichloroanilino)phenylacetamido]octanoyl}-sn-glycero-3-phosphocholine], for which the “log Pc (octanol/saline distribution coefficient)” value in data set [1] is given as “≧3”. In addition, the solubility in data set [2] (saline, saline or isotonic) stood at 1 µg/mL (≈ 1.06 µM); in data set [2] (water), 1 µg/mL (≈ 1.06 µM).

As for `CCCCCCCCCCCCCCCCCC(=O)OC[C@H](COP(=O)([O-])OCC[N+](C)(C)C)OC(=O)CCCCCCCCCCCNC(=O)Cc1ccccc1Nc1c(Cl)cccc1Cl` [DCF n=11, 1-Stearoyl-2-{12-[2-(2,6-dichloroanilino)phenylacetamido]dodecanoyl}-sn-glycero-3-phosphocholine], in data set [1], the “log Pc (octanol/saline distribution coefficient)” value is listed as “≧2.5”. Besides, the solubility in data set [2] (saline, saline or isotonic) was less than 1 µg/mL; in data set [2] (water), less than 1 µg/mL.

Regarding `CCCCCCCCCCCCCCCCCC(=O)OC[C@H](COP(=O)([O-])OCC[N+](C)(C)C)OC(=O)CCNC(=O)C(C)c1ccc(CC(C)C)cc1` (stereo partly drawn) [Ibu n=2, 1-Stearoyl-2-{3-[α-methyl-4-(2-methylpropyl)benzeneacetamido]propanoyl}-sn-glycero-3-phosphocholine], in data set [1], the logD turned out to be 1.8. Besides, the solubility was 300 µg/mL (≈ 383 µM) in data set [2] (saline, saline or isotonic) and 200 µg/mL (≈ 255 µM) in data set [2] (water).

Consider `CCCCCCCCCCCCCCCCCC(=O)OC[C@H](COP(=O)([O-])OCC[N+](C)(C)C)OC(=O)CCCCCNC(=O)C(C)c1ccc(CC(C)C)cc1` (stereo partly drawn) [Ibu n=5, 1-Stearoyl-2-{6-[α-methyl-4-(2-methylpropyl)benzeneacetamido]hexanoyl}-sn-glycero-3-phosphocholine], for which, in data set [1], the “log Pc (octanol/saline distribution coefficient)” value is reported as “≧3”. The solubility in data set [2] (saline, saline or isotonic) came out at 500 µg/mL (≈ 606 µM); in data set [2] (water) it was 500 µg/mL (≈ 606 µM).

In the case of `CCCCCCCCCCCCCCCCCC(=O)OC[C@H](COP(=O)([O-])OCC[N+](C)(C)C)OC(=O)CCNC(=O)Cc1c(C)n(C(=O)c2ccc(Cl)cc2)c2ccc(OC)cc12` [Indo n=2, 1-Stearoyl-2-{3-[1-(p-chlorobenzoyl)-5-methoxy-2-methyl-3-indolylacetamido]propanoyl}-sn-glycero-3-phosphocholine], the logD in data set [1] amounted to 2.5. Further, the solubility was roughly 1500 µg/mL (≈ 1610 µM) in data set [2] (saline, saline or isotonic) and less than 900 µg/mL in data set [2] (water).

In the case of `CCCCCCCCCCCCCCCCCC(=O)OC[C@H](COP(=O)([O-])OCC[N+](C)(C)C)OC(=O)CCCNC(=O)Cc1c(C)n(C(=O)c2ccc(Cl)cc2)c2ccc(OC)cc12` [Indo n=3, 1-Stearoyl-2-{4-[1-(p-chlorobenzoyl)-5-methoxy-2-methyl-3-indolylacetamido]butanoyl}-sn-glycero-3-phosphocholine], in data set [1], the logD turned out to be 2.5. For the same compound, the solubility in data set [2] (saline, saline or isotonic) is roughly 1500 µg/mL (≈ 1580 µM); in data set [2] (water), less than 600 µg/mL.

As for `CCCCCCCCCCCCCCCCCC(=O)OC[C@H](COP(=O)([O-])OCC[N+](C)(C)C)OC(=O)CCCCNC(=O)Cc1c(C)n(C(=O)c2ccc(Cl)cc2)c2ccc(OC)cc12` [Indo n=4, 1-Stearoyl-2-{5-[1-(p-chlorobenzoyl)-5-methoxy-2-methyl-3-indolylacetamido]valeroyl}-sn-glycero-3-phosphocholine], the “log Pc (octanol/saline distribution coefficient)” value in data set [1] was determined as 2.9. The solubility in data set [2] (saline, saline or isotonic) was roughly 100 µg/mL (≈ 104 µM); in data set [2] (water), less than 10 µg/mL.

On to `CCCCCCCCCCCCCCCCCC(=O)OC[C@H](COP(=O)([O-])OCC[N+](C)(C)C)OC(=O)CCCCCNC(=O)Cc1c(C)n(C(=O)c2ccc(Cl)cc2)c2ccc(OC)cc12` [Indo n=5, 1-Stearoyl-2-{6-[1-(p-chlorobenzoyl)-5-methoxy-2-methyl-3-indolylacetamido]hexanoyl}-sn-glycero-3-phosphocholine], for which the logD in data set [1] was 3.2. The solubility in data set [2] (saline, saline or isotonic) is roughly 10 µg/mL (≈ 10.2 µM); in data set [2] (water) it was less than 10 µg/mL.

`CCCCCCCCCCCCCCCCCC(=O)OC[C@H](COP(=O)([O-])OCC[N+](C)(C)C)OC(=O)CCCCCCCNC(=O)Cc1c(C)n(C(=O)c2ccc(Cl)cc2)c2ccc(OC)cc12` [Indo n=7, 1-Stearoyl-2-{8-[1-(p-chlorobenzoyl)-5-methoxy-2-methyl-3-indolylacetamido]octanoyl}-sn-glycero-3-phosphocholine] yielded a pH-dependent lipophilicity (logD) in data set [1] of 3.7. This compound gave a solubility in data set [2] (water) of roughly 5 µg/mL (≈ 4.98 µM).

As for `CCCCCCCCCCCCCCCCCC(=O)OC[C@H](COP(=O)([O-])OCC[N+](C)(C)C)OC(=O)CCNC(=O)[C@@H](C)c1ccc2cc(OC)ccc2c1` [Nap n=2, 1-Stearoyl-2-{3-[(S)-6-methoxy-α-methyl-2-naphtaleneacetamido]propanoyl}-sn-glycero-3-phosphocholine], the “log Pc (octanol/saline distribution coefficient)” value in data set [1] was “≧3”. Moreover, in data set [2], the “Solubility (mg/ml) Saline” value is listed as 0.06^a) mg/ml and the “Solubility (mg/ml) Water” value is 0.01^a) mg/ml.

For `CCCCCCCCCCCCCCCCCC(=O)OC[C@H](COP(=O)([O-])OCC[N+](C)(C)C)OC(=O)CCCNC(=O)[C@@H](C)c1ccc2cc(OC)ccc2c1` [Nap n=3, 1-Stearoyl-2-{4-[(S)-6-methoxy-α-methyl-2-naphtaleneacetamido]butanoyl}-sn-glycero-3-phosphocholine], the “log Pc (octanol/saline distribution coefficient)” value in data set [1] is “≧3”. In data set [2], the “Solubility (mg/ml) Saline” value is 0.09^a) mg/ml and the “Solubility (mg/ml) Water” value is listed as 0.12^a) mg/ml.

Take `CCCCCCCCCCCCCCCCCC(=O)OC[C@H](COP(=O)([O-])OCC[N+](C)(C)C)OC(=O)CCCCCNC(=O)[C@@H](C)c1ccc2cc(OC)ccc2c1` [Nap n=5, 1-Stearoyl-2-{6-[(S)-6-methoxy-α-methyl-2-naphtaleneacetamido]hexanoyl}-sn-glycero-3-phosphocholine]: the “log Pc (octanol/saline distribution coefficient)” value in data set [1] was “≧3”. In addition, in data set [2], the “Solubility (mg/ml) Saline” value is 0.2^a) mg/ml and the “Solubility (mg/ml) Water” value is on record as 0.2^a) mg/ml.

The values are drawn from US7173018B2, “Phospholipid derivatives of non-steroidal anti-inflammatory drugs” (D-Pharm, Ltd., priority 1998, dated 2007).
